Results from paper PMC12856912, “Structure-Guided Semisynthesis of Blasticidin S–Amicetin Chimeras as Selective Ribosome Inhibitors” (Journal of the American Chemical Society, 2026).
Converted amounts (≈) assume the structure as drawn.

Experiments:
[1] = test system: Vancomycin resistant Enterococcus faecium NR-31909 (VRE); assay: Antibacterial MIC assay, serial dilution; assay type: cell-based
Summary of the method: (§1)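 Overnight cultures were subcultured in CAMHB to OD600 ~0.5, then diluted to OD600 0.004 and added to serially diluted compound (final 128–1 μg/mL). After incubation at 37 °C for 16–18 h, or 24 h for VRE, growth was read at OD600 and MIC taken as >90% inhibition.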

[2] = test system: Klebsiella pneumoniae ATCC 29665; assay: Antibacterial MIC assay, serial dilution; assay type: cell-based
Summary of the method: as §1

[3] = test system: Acinetobacter baumannii ATCC 17978; assay: Antibacterial MIC assay, serial dilution; assay type: cell-based; details: ATCC17978, range from biological replicates
Summary of the method: as §1

Pseudomonas aeruginosa = assay: Antibacterial MIC assay, serial dilution; assay type: cell-based
Summary of the method: as §1

[4] = test system: Enterococcus faecalis ATCC 29212; assay: Antibacterial MIC assay, serial dilution; assay type: cell-based
[5] = test system: Escherichia coli BAA-2452; assay: Antibacterial MIC assay, serial dilution; assay type: cell-based; details: BAA2452, read-out: MIC Escherichia coli BAA-2452
[6] = test system: Methicillin resistant Staphylococcus epidermidis (MRSE) ATCC 35984 NRS101; assay: Antibacterial MIC assay, serial dilution; assay type: cell-based
[7] = test system: Vancomycin resistant E. faecalis NR-31972 (VRE); assay: Antibacterial MIC assay, serial dilution; assay type: cell-based, Enterococcus faecalis
Summary of the method: as §1

[8] = test system: Methicillin resistant S. aureus (MRSA) USA300; assay: Antibacterial MIC assay, serial dilution; assay type: cell-based, Staphylococcus aureus
[9] = Cytotoxicity assay (MTS/PMS); assay type: cell-based; details: monkey, Vero cells (monkey kidney epithelial cells); 24 h treatment, MTS/PMS, average of three biological replicates; read-out: CC50 against Vero cells
Summary of the method: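 CC50 (µg/mL) was taken as the compound level that lowered vehicle-normalized viability to 50%, from MTS/PMS absorbance at 490 nm after 4 h with reagent. Monkey kidney Vero cells in DMEM/10% FBS received serial dilutions for 24 h at 37 °C, in three biological replicates.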

S. aureus ATCC 6538P = assay: Antibacterial MIC assay, serial dilution; assay type: cell-based, Staphylococcus aureus
Summary of the method: as §1

MRSA ATCC 43300 = assay: Antibacterial MIC assay, serial dilution; assay type: cell-based, Staphylococcus aureus
Summary of the method: as §1

S. aureus ΔNorA = assay: Antibacterial MIC assay, serial dilution; assay type: cell-based, Staphylococcus aureus
Summary of the method: as §1

bacteria = assay: Antibacterial assays, summary statements over the panel; assay type: cell-based; details: against most S. aureus strains
Protocol: Media and solutions were autoclaved or sterile filtered prior to use and mani pulations were carri ed out in a laminar flow hood. Antibacterial t esting was performed in polypropylene 96-well flat bottom plates. The minimal inhibitory concentration of blasticidin S (1) hydrochloride, methyl ester (3) trihydrochloride, P10 (2) tri-T FA , phenet hyl amide (4) tri -T FA , an d blastimidines M 19– 22, A, 29–32, P 37–40, and C 43–46 (salt forms as described in the te xt) were assessed against Staphylococcus aureus ΔNorA, S. aureus ATCC 6538P, methicillin-resistant S. aureus (MRSA) ATCC 43300, Enterococcus faecalis ATCC 29212, vancomycin- resistant Enterococcus, Klebsiella pneumoniae ATCC 29665, Pseudomonas aeruginosa,and Acinetobacter baumannii ATCC 17978 using serial dilutions. Doxycycline (Gold Bio) as a positive control and the vehicle as a negative control. Stock solutions of each compound were prepared at 2.56 mg/mL in 50% DMSO/water and serially diluted in 50% DMSO/water to create master plates. […]
Growth controls (wells with inoculated media but no vehicle or test compounds) were included to assess any potential toxicity from the vehicle. […] Inh ibition was determined by measuring the optical density at 600 nm (OD60 0) with a Cytation 3 pl ate read er (BioTek). […]

CNc1ccc(C(=O)Nc2ccn([C@H]3C=C[C@H](NC(=O)C[C@@H](N)CCN(C)C(=N)N)[C@@H](C(=O)OC)O3)c(=O)n2)cc1 [Blastimidine M3]
Selectivity index (CC50/MIC) VRE NR-31909 ([1]; CC50 Vero cells / MIC): 3.2
MIC ([1]; Enterococcus faecium, VRE, 24 h, read-out: MIC Vancomycin resistant Enterococcus faecium NR-31909 (VRE)): 64 µg/mL (≈ 112 µM)
Selectivity index (CC50/MIC) K. pneumoniae ([2]; CC50 Vero cells / MIC): 6.4
MIC ([2]; Klebsiella pneumoniae, ATCC29665, range from biological replicates, read-out: MIC K. pneumoniae ATCC-29665): 32 µg/mL (≈ 56.2 µM)
MIC [3]: > 128 µg/mL
Selectivity index (CC50/MIC) P. aeruginosa (Pseudomonas aeruginosa; CC50 Vero cells / MIC): <1.6
MIC (Pseudomonas aeruginosa; Pseudomonas aeruginosa, range from biological replicates, read-out: MIC P. aeruginosa): > 128 µg/mL
Selectivity index (CC50/MIC) E. faecalis 29212 ([4]; CC50 Vero cells / MIC): 13
MIC ([4]; Enterococcus faecalis, ATCC 29112 / ATCC 29212, 24 h, read-out: MIC E. faecalis ATCC 29112): 16 µg/mL (≈ 28.1 µM)
MIC [5]: 32 µg/mL (≈ 56.2 µM)
Selectivity index (CC50/MIC) MRSE 35984 ([6]; CC50 Vero cells / MIC): 26
MIC ([6]; Staphylococcus epidermidis, read-out: MIC Methicillin resistant Staphylococcus epidermidis (MRSE) ATCC 35984 NRS101): 8 µg/mL (≈ 14 µM)
Selectivity index (CC50/MIC) VRE NR-31972 ([7]; CC50 Vero cells / MIC): 13
MIC ([7]; Enterococcus faecalis, VRE, 24 h, read-out: MIC Vancomycin resistant E. faecalis NR-31972 (VRE)): 16 µg/mL (≈ 28.1 µM)
Selectivity index (CC50/MIC) MRSA USA300 ([8]; CC50 Vero cells / MIC): 26
MIC ([8]; Staphylococcus aureus, read-out: MIC Methicillin resistant S. aureus (MRSA) USA300): 8 µg/mL (≈ 14 µM)
CC50 at 24 h [9]: 205 µg/mL (≈ 360 µM)
Selectivity index (CC50/MIC) S. aureus 6538P (S. aureus ATCC 6538P; CC50 Vero cells / MIC): 26
MIC (S. aureus ATCC 6538P; Staphylococcus aureus, ATCC 6538P / ATCC 6539P, read-out: MIC S. aureus ATCC 6539P): 8 µg/mL (≈ 14 µM)
Selectivity index (CC50/MIC) MRSA 43300 (MRSA ATCC 43300; CC50 Vero cells / MIC): 13
MIC (MRSA ATCC 43300; Staphylococcus aureus, read-out: MIC MRSA ATCC 43300): 16 µg/mL (≈ 28.1 µM)
Selectivity index (CC50/MIC) S. aureus ΔNorA (S. aureus ΔNorA; CC50 Vero cells / MIC): 26
MIC (S. aureus ΔNorA; Staphylococcus aureus, read-out: MIC S. aureus ∆NorA): 8 µg/mL (≈ 14 µM)
Selectivity index (SI) (bacteria): > 25
